Measurements taken from patent publication US6479435B1, “Diaryl ethers and processes for their preparation and herbicidal and desiccant compositions containing them” (ISK Americas Incorporated, priority 1997, dated 2002).

What was measured:
Type in all cases: in vivo
[1] = test system: lambsquarters (Chenopodium album, CHEAL); assay: Pre-emerge greenhouse herbicide test, phytotoxicity rating; details: 14 days after application, rating scale 0-100
Description: (§1) A standard greenhouse herbicide activity screening system was used to evaluate the herbicidal efficacy and crop safety of these test compounds. Six broadleaf weed species including redroot pigweed (Amaranthus retroflexus, AMARE), velvetleaf (Abutilon theophrasti, ABUTH), sicklepod (Cassia obtusifolia, CASOB), ivyleaf morningglory (Ipomoea hederacea, IPOHE), lambsquarters (Chenopodium album, CHEAL) and common ragweed (Ambrosia artemisiifolia L., AMBEL) were used as test species. Four grass weed species including green foxtail (Setaria viridis, SETVI), barnyardgrass (Echinochloa crusgalli, ECHCG), Johnsongrass (Sorghum halepense, SORHA), and large crabgrass (Digitaria sanguinalis, DIGSA) were also used. In addition, three crop species, field corn (Zea mays L., var. Dekalb 535, CORN), soybean (Glycine max L., var. Pella 86, SOY), and upland rice (Oryza sp., var.Tebonnet, RICE) were included.
(§2) All plants were grown in 10 cm square plastic pots which were filled with a sandy loam soil mix. For preemerge tests, seeds were planted one day prior to application of the test compounds. Immediately after application, test units of the pre-emerge applications were watered at the soil surface to incorporate the test materials. Subsequently, these test units were bottom-watered.
(§3) All test compounds were dissolved in acetone and applied to the test units in a volume of 187 l/ha. Test materials were applied at rates ranging from 125 g ai/ha to 1000 g ai/ha using a track sprayer equipped with a TJ8001E even flow flat fan spray nozzle. Plants were arranged on a shelf so that the top of the canopy (post-emerge) or top of the soil surface (pre-emerge) was 40-45 cm below the nozzle. Pressurized air was used to force the test solution through the nozzle as it was mechanically advanced (via electrically driven chain drive) over the top of all test plants/pots. This application simulates a typical commercial field herbicide application.
(§4) At 14 days after application of the test materials, phytotoxicity ratings were recorded. A rating scale of 0-100 was used as previously described in Research Methods in Weed Science, 2nd edition, B. Truelove, Ed., Southern Weed Science Society, Auburn University, Auburn, Ala., 1977. Briefly, “0” corresponds to no damage and “100” corresponds to complete death of all plants in the test unit. This scale was used both to determine efficacy against weed species and damage to crop species. Herbicide activity data for various compounds of this invention, which are shown by compound number in Tables 1-9, are shown in Tables 13 and 14.

[2] = test system: sicklepod (Cassia obtusifolia, CASOB); assay: as above; details: 14 days after application, rating scale 0-100
Description: as §1, §2, §3, §4

[3] = test system: green foxtail (Setaria viridis, SETVI); assay: as above; details: 14 days after application, rating scale 0-100
Description: as §1, §2, §3, §4

[4] = test system: redroot pigweed (Amaranthus retroflexus, AMARE); assay: as above; details: 14 days after application, rating scale 0-100
Description: as §1, §2, §3, §4

[5] = test system: ivyleaf morningglory (Ipomoea hederacea, IPOHE); assay: as above; details: 14 days after application, rating scale 0-100
Description: as §1, §2, §3, §4

[6] = test system: large crabgrass (Digitaria sanguinalis, DIGSA); assay: as above; details: 14 days after application, rating scale 0-100
Description: as §1, §2, §3, §4

[7] = test system: velvetleaf (Abutilon theophrasti, ABUTH); assay: as above; details: 14 days after application, rating scale 0-100
Description: as §1, §2, §3, §4

[8] = test system: Johnsongrass (Sorghum halepense, SORHA); assay: as above; details: 14 days after application, rating scale 0-100
Description: as §1, §2, §3, §4

[9] = test system: barnyardgrass (Echinochloa crusgalli, ECHCG); assay: as above; details: 14 days after application, rating scale 0-100
Description: as §1, §2, §3, §4

[10] = test system: lambsquarters (Chenopodium album, CHEAL); assay: Post-emerge greenhouse herbicide test, phytotoxicity rating; details: 14 days after application, scale 0-100
How it was run: (§5)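 Plants at the 2-3 leaf stage, sown 8-21 days earlier, were track-sprayed post-emergence with compound in acetone plus 0.25% v/v non-ionic surfactant at 63-1000 g ai/ha (187 l/ha). Damage was rated at 14 days on a 0-100 scale (0 none, 100 all plants dead), for both crop injury and weed control.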

[11] = test system: sicklepod (Cassia obtusifolia, CASOB); assay: as above; details: 14 days after application, scale 0-100
How it was run: as §5

[12] = test system: green foxtail (Setaria viridis, SETVI); assay: as above; details: 14 days after application, scale 0-100
How it was run: as §5

[13] = test system: redroot pigweed (Amaranthus retroflexus, AMARE); assay: as above; details: 14 days after application, scale 0-100
How it was run: as §5

[14] = test system: ivyleaf morningglory (Ipomoea hederacea, IPOHE); assay: as above; details: 14 days after application, scale 0-100
How it was run: as §5

[15] = test system: large crabgrass (Digitaria sanguinalis, DIGSA); assay: as above; details: 14 days after application, scale 0-100
How it was run: as §5

[16] = test system: velvetleaf (Abutilon theophrasti, ABUTH); assay: as above; details: 14 days after application, scale 0-100
How it was run: as §5

[17] = test system: Johnsongrass (Sorghum halepense, SORHA); assay: as above; details: 14 days after application, scale 0-100
How it was run: as §5

[18] = test system: barnyardgrass (Echinochloa crusgalli, ECHCG); assay: as above; details: 14 days after application, scale 0-100
How it was run: as §5

[19] = test system: soybean (Glycine max L., var. Pella 86, SOY); assay: Post-emerge greenhouse test, crop damage rating; design: key to crop damage rating SOY: 0-100 scale: 0 = no damage, 100 = complete death of all plants; details: 14 days after application, scale 0-100
How it was run: as §5

[20] = test system: upland rice (Oryza sp., var.Tebonnet, RICE); assay: Post-emerge greenhouse test, crop damage rating; details: 14 days after application, scale 0-100
How it was run: as §5

[21] = test system: field corn (Zea mays L., var. Dekalb 535, CORN); assay: Post-emerge greenhouse test, crop damage rating; details: 14 days after application, scale 0-100
How it was run: as §5

[22] = test system: common ragweed (Ambrosia artemisiifolia L., AMBEL); assay: Post-emerge greenhouse herbicide test, phytotoxicity rating; details: 14 days after application, scale 0-100
Description: as §1
as §3, with “Test materials were applied at rates ranging from 125 g ai/ha to 1000 g ai/ha using a track sprayer equipped with a TJ8001E even flow flat fan spray nozzle.” left out
In the post-emerge test, a commercial non-ionic surfactant was also included (0.25% v/v) to enhance wetting of the leaf surfaces Qf target plants at rates ranging from 63 g ai/ha to 1000 g ai/ha. For post-emerge tests, seeds were planted 8-21 days prior to the test to allow emergence and good foliage development prior to application of the test substances. At the time of the post-emerge application, plants of all species were usually at the 2-3 leaf stage of development. Post-emerge test units were always bottom-watered.
as §4

[23] = test system: soybean (Glycine max L., var. Pella 86, SOY); assay: Pre-emerge greenhouse test, crop damage rating; design: key to SOY crop damage rating: 0 = no damage, 100 = complete death of all plants; details: 14 days after application, rating scale 0-100
How it was run: (§6)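 Seeds sown in sandy loam one day before track-sprayer application of acetone solutions at 125–1000 g ai/ha (187 l/ha), then surface-watered to incorporate and bottom-watered. Injury scored visually at 14 days on a 0–100 scale (0 no damage, 100 complete death).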

[24] = test system: upland rice (Oryza sp., var.Tebonnet, RICE); assay: Pre-emerge greenhouse test, crop damage rating; details: Rate 250 g al/ha, 14 days after application, rating scale 0-100
How it was run: as §6

[25] = test system: field corn (Zea mays L., var. Dekalb 535, CORN); assay: Pre-emerge greenhouse test, crop damage rating; details: 14 days after application, rating scale 0-100
How it was run: as §6

SMILES: CCOC(=O)C(C)Oc1ccc(Oc2cc(-n3c(=O)n4n(c3=S)CCCC4)c(F)cc2Cl)c([N+](=O)[O-])c1 (stereo not shown) [Compound 8-39]
- CHEAL phytotoxicity rating ([1]; Rate 125 g al/ha): 99
- CHEAL phytotoxicity rating ([1]; Rate 250 g al/ha): 100
- CASOB phytotoxicity rating ([2]; Rate 125 g al/ha): 95
- CASOB phytotoxicity rating ([2]; Rate 250 g al/ha): 0
- SETVI phytotoxicity rating ([3]; Rate 125 g al/ha): 0
- SETVI phytotoxicity rating ([3]; Rate 250 g al/ha): 40
- AMARE phytotoxicity rating ([4]; Rate 125 g al/ha): 100
- AMARE phytotoxicity rating ([4]; Rate 250 g al/ha): 100
- IPOHE phytotoxicity rating ([5]; Rate 125 g al/ha): 0
- IPOHE phytotoxicity rating ([5]; Rate 250 g al/ha): 0
- DIGSA phytotoxicity rating ([6]; Rate 125 g al/ha): 0
- DIGSA phytotoxicity rating ([6]; Rate 250 g al/ha): 0
- ABUTH phytotoxicity rating ([7]; Rate 125 g al/ha): 20
- ABUTH phytotoxicity rating ([7]; Rate 250 g al/ha): 100
- SORHA phytotoxicity rating ([8]; Rate 125 g al/ha): 0
- SORHA phytotoxicity rating ([8]; Rate 250 g al/ha): 0
- ECHCG phytotoxicity rating ([9]; Rate 125 g al/ha): 0
- ECHCG phytotoxicity rating ([9]; Rate 250 g al/ha): 0
- phytotoxicity rating CHEAL ([10]; rate 63 g ai/ha): 50
- phytotoxicity rating CHEAL ([10]; rate 230 g ai/ha): 70
- phytotoxicity rating CASOB ([11]; rate 63 g ai/ha): 100
- phytotoxicity rating CASOB ([11]; rate 230 g ai/ha): 30
- phytotoxicity rating SETVI ([12]; rate 63 g ai/ha): 10
- phytotoxicity rating SETVI ([12]; rate 230 g ai/ha): 10
- phytotoxicity rating AMARE ([13]; rate 63 g ai/ha): 70
- phytotoxicity rating AMARE ([13]; rate 230 g ai/ha): 80
- phytotoxicity rating IPOHE ([14]; rate 63 g ai/ha): 100
- phytotoxicity rating IPOHE ([14]; rate 230 g ai/ha): 90
- phytotoxicity rating DIGSA ([15]; rate 63 g ai/ha): 0
- phytotoxicity rating DIGSA ([15]; rate 230 g ai/ha): 10
- phytotoxicity rating ABUTH ([16]; rate 63 g ai/ha): 100
- phytotoxicity rating ABUTH ([16]; rate 230 g ai/ha): 100
- phytotoxicity rating SORHA ([17]; rate 63 g ai/ha): 0
- phytotoxicity rating SORHA ([17]; rate 230 g ai/ha): 10
- phytotoxicity rating ECHCG ([18]; rate 63 g ai/ha): 0
- phytotoxicity rating ECHCG ([18]; rate 230 g ai/ha): 30
- crop damage rating SOY ([19]; rate 63 g ai/ha): 60
- crop damage rating SOY ([19]; rate 230 g ai/ha): 80
- crop damage rating RICE ([20]; rate 63 g ai/ha): 15
- crop damage rating RICE ([20]; rate 230 g ai/ha): 15
- crop damage rating CORN ([21]; rate 63 g ai/ha): 15
- crop damage rating CORN ([21]; rate 230 g ai/ha): 10
- phytotoxicity rating AMBEL ([22]; rate 63 g ai/ha): 60
- phytotoxicity rating AMBEL ([22]; rate 230 g ai/ha): 80
- SOY crop damage rating ([23]; Rate 125 g al/ha): 0
- SOY crop damage rating ([23]; Rate 250 g al/ha): 0
- RICE crop damage rating [24]: 20
- CORN crop damage rating ([25]; Rate 125 g al/ha): 0
- CORN crop damage rating ([25]; Rate 250 g al/ha): 0
